Common to all, as to assay type: cell-based
Assay [1] concerns NCI-1703. Description: cell viability of NCI-1703 cells, 1 and 10 uM of each erlotinib derivative, and IC50. To be noted: Homo sapiens; for IC50: cell viability. The procedure: [Worded in the source for another cell line; this cell line is reported under the same test.] (§1) Sorafenib (Nexavar), erlotinib (Tarceva) and Paclitaxel were kindly provided by Bayer Pharmaceuticals (Pittsburgh, Pa., USA) and Roche Pharmaceuticals (Basel, Switzerland) respectively. Okadaic acid (OA) was purchased from Cayman Chemical (Ann Arbor, Mich., USA) and z-VAD-fmk was obtained from Sigma (St. Louis, Mo., USA). For in vitro studies, drugs at various concentrations were dissolved in dimethyl sulfoxide (DMSO), and added to cells in Dulbecco's modified Eagle's medium (DMEM) or Roswell Park Memorial Institute (RPMI) containing 5% fetal bovine serum (FBS).
(§2) The Sk-Hep1, PLC/PRF/5 (PLC) and Hep3B cell lines were obtained from American Type Culture Collection (ATCC; Manassas, Va., USA). The Huh-7 HCC cell line was obtained from the Health Science Research Resources Bank (HSRRB; Osaka, Japan; JCRB0403). Cells were maintained in DMEM supplemented with 10% FBS in a 37° C. humidified incubator in an atmosphere of 5% CO^2 in air.

Assay [2] concerns H358. The assay is described as follows: cell viability of H358 cells, 1 and 10 uM. The note with it: Homo sapiens, NCI-H358. The procedure: [Worded in the source for another cell line; this cell line is reported under the same test.] as §1, §2
Assay [3] has as its system H2170. The assay is described as follows: cell viability of H2170 cells, 1 and 10 uM. To be noted: Homo sapiens, NCI-H2170. The procedure: [Worded in the source for another cell line; this cell line is reported under the same test.] as §1, §2
Assay [4] concerns NCI-H226. Description: cell viability of NCI-H226 cells, 1 and 10 uM. The note with it: Homo sapiens. The procedure:
[Worded in the source for another cell line; this cell line is reported under the same test.] as §1, §2

Assay [5] relates to A549. Description: cell viability of A549 cells, 1 and 10 uM. To be noted: Homo sapiens. The method, then:
[Worded in the source for another cell line; this cell line is reported under the same test.] as §1, §2

Assay [6] relates to H520. Description: cell viability of H520 cells, 1 and 10 uM. To be noted: Homo sapiens, NCI-H520. The procedure:
[Worded in the source for another cell line; this cell line is reported under the same test.] as §1, §2

The subject of assay [7] is SW900. Description: cell viability of SW900 cells, 1 and 10 uM. To be noted: Homo sapiens. The procedure:
[Worded in the source for another cell line; this cell line is reported under the same test.] as §1, §2

Structures are written as SMILES.

The viability is a read-out of living cells in per cent, often relative to untreated cells. Usually IC50 stands for the point on the concentration scale where inhibition reaches its midpoint. Read a high IC50 as a need for much substance.

On to `c1ccc(Oc2ccc(Nc3nc4ccccc4nc3Nc3ccc(Oc4ccccc4)cc3)cc2)cc1` [TD53, N^2,N^3-bis(4-phenoxyphenyl)quinoxaline-2,3-diamine], for which the viability at 1 µM in assay [1] amounted to 68.4 ± 1.4%; in assay [2], 120 ± 9.2%; in assay [3], 99.7 ± 6%; in assay [4], 86.2 ± 5.7%; in assay [5], 99.4 ± 6.9%; in assay [6], 101.7 ± 0.34%. For the same molecule, the viability at 1 µM in assay [7] came to 121 ± 9.01%. Besides, the viability at 10 µM is 46.7 ± 0.2% in assay [1]; 41.9 ± 3.9% in assay [2]; 59.2 ± 1.25% in assay [3]; 56.8 ± 2.7% in assay [4]; 82.7 ± 99.9% in assay [5]; 10.6 ± 0.58% in assay [6]. The same molecule gave a concentration for half-maximal inhibition (IC50) in assay [1] of 7.4 µM.
On to `c1ccc(CNc2nc3ccccc3nc2NCc2ccccc2)cc1` [TD54, N^2,N^3-dibenzylquinoxaline-2,3-diamine], for which the viability at 1 µM was found to be 127 ± 2% in assay [1]; 100 ± 4.93% in assay [3]; 120 ± 4.9% in assay [4]; 118 ± 3% in assay [6]; 125 ± 27% in assay [7]. For the same molecule, the viability at 10 µM in assay [1] was determined as 96.7 ± 4.2%; in assay [3], 79.1 ± 7.69%; in assay [4], 110.9 ± 0.8%; in assay [6], 102 ± 1.46%; in assay [7] it was 126 ± 10.6%.
As to `c1ccc(Nc2nc3ccccc3nc2Nc2ccccc2)cc1` [TD55, N^2,N^3-diphenylquinoxaline-2,3-diamine], the viability at 1 µM came to 64.2 ± 5.3% in assay [1]; 110 ± 14.2% in assay [2]; 102.7 ± 0.73% in assay [3]; 106 ± 17.3% in assay [4]; 100 ± 7.2% in assay [5]; 89.9 ± 1.02% in assay [6]. Moreover, the viability at 1 µM in assay [7] stood at 100 ± 6.69%. The viability at 10 µM in assay [1] was found to be 49.9 ± 4.8%; in assay [2] it was 42.1 ± 0.6%; in assay [3], 94.8 ± 6.05%; in assay [4], 96.4 ± 7.4%; in assay [5], 36.5 ± 5.9%; in assay [6] it was 59.2 ± 15.8%. In addition, the viability at 10 µM in assay [7] worked out at 88.3 ± 1.29%. Further, half-maximal inhibition in assay [1] (IC50) required 8.3 µM.
For `Clc1cccc(Nc2nc3ccccc3nc2Nc2cccc(Cl)c2)c1` [TD56, N^2,N^3-bis(3-chlorophenyl)quinoxaline-2,3-diamine], the viability at 1 µM in assay [1] turned out to be 49.9 ± 4.7%; in assay [3], 95 ± 0.91%; in assay [4], 115.4 ± 0.8%; in assay [6], 98.4 ± 6.37%; in assay [7], 118 ± 5.41%. The viability at 10 µM in assay [1] was found to be 28.8 ± 2.3%; in assay [3], 32.5 ± 14.1%; in assay [4], 19 ± 2%; in assay [6], 4.76 ± 0.24%; in assay [7], 1.46 ± 3.6%.
Consider `Cc1ccc(F)c(Nc2nc3ccccc3nc2Nc2cc(C)ccc2F)c1` [TD58, N^2,N^3-bis(2-fluoro-5-methylphenyl)quinoxaline-2,3-diamine], for which the viability at 1 µM was 127 ± 2.9% in assay [1]; 92.8 ± 2.03% in assay [3]; 123 ± 3.6% in assay [4]; 96.2 ± 1.22% in assay [6]; 111 ± 1.54% in assay [7]. Besides, the viability at 10 µM in assay [1] was 98.9 ± 1.1%; in assay [3] it was 83 ± 3.41%; in assay [4], 74.9 ± 1.5%; in assay [6], 95.6 ± 4.66%; in assay [7], 91.8 ± 9.78%.
As to `CCc1cccc(Nc2nc3ccccc3nc2Nc2cccc(CC)c2)c1` [TD59, N^2,N^3-bis(3-ethylphenyl)quinoxaline-2,3-diamine], the viability at 1 µM in assay [1] was 114 ± 7.4%; in assay [2], 117 ± 12.1%; in assay [3] it was 88.4 ± 2.01%; in assay [4], 122 ± 2.6%; in assay [5], 164.6 ± 0.1%; in assay [6], 88.3 ± 1.5%. In addition, the viability at 1 µM in assay [7] was 110 ± 1.8%. Also, the viability at 10 µM came to 26.4 ± 0.7% in assay [1]; 19 ± 1.5% in assay [2]; 8.96 ± 1.43% in assay [3]; 32.5 ± 2.5% in assay [4]; 24.1 ± 3.9% in assay [5]; 0.41 ± 0.32% in assay [6].
As to `FC(F)(F)c1cccc(Nc2nc3ccccc3nc2Nc2cccc(C(F)(F)F)c2)c1` [TD60, N^2,N^3-bis(3-(trifluoromethyl)phenyl)quinoxaline-2,3-diamine], the viability at 1 µM is 51.9 ± 2.9% in assay [1]; 55.3 ± 1.9% in assay [2]; 72.3 ± 0.89% in assay [3]; 92.5 ± 1.7% in assay [4]; 91.3 ± 4% in assay [5]; 21.8 ± 1.52% in assay [6]. Moreover, in assay [7], the viability at 1 µM was 19.3 ± 6.18%. The viability at 10 µM in assay [1] turned out to be 26.1 ± 0.8%; in assay [2], 18.1 ± 1.3%; in assay [3] it was 0.41 ± 0.65%; in assay [4], 15.9 ± 1%; in assay [5], 21.8 ± 1.4%; in assay [6], 0.36 ± 0.18%.
As for `N#CCc1ccc(Nc2nc3ccccc3nc2Nc2ccc(CC#N)cc2)cc1` [TD62, 2,2′-((quinoxaline-2,3-diylbis(azanediyl))bis(4,1-phenylene))diacetonitrile], the viability at 1 µM was 112 ± 3.6% in assay [1]; 121 ± 2.2% in assay [2]; 92.5 ± 1.41% in assay [3]; 86 ± 2% in assay [4]; 166 ± 23.1% in assay [5]; 103 ± 1.7% in assay [6]. In assay [7], the viability at 1 µM turned out to be 128 ± 1.8%. For the same molecule, the viability at 10 µM in assay [1] was found to be 65.2 ± 0.6%; in assay [2] it was 97.4 ± 8.1%; in assay [3] it was 85.3 ± 4.56%; in assay [4] it was 90.1 ± 8.2%; in assay [5], 120 ± 29%; in assay [6] it was 100 ± 2.46%. The viability at 10 µM in assay [7] amounted to 128 ± 6.18%.
`COC(=O)c1ccc2nc(Nc3ccc(OC(F)(F)F)cc3)c(Nc3ccc(OC(F)(F)F)cc3)nc2c1` [TD94, methyl 2,3-bis((4-(trifluoromethoxy)phenyl)amino)quinoxaline-6-carboxylate]: the viability at 1 µM in assay [1] stood at 29.9 ± 6.8%; in assay [2], 13 ± 0.2%; in assay [4], 32.1 ± 2.7%; in assay [5], 49 ± 6.5%. Moreover, the viability at 10 µM was found to be 19.5 ± 1.1% in assay [1], 15.7 ± 5.9% in assay [2], 8 ± 0.1% in assay [4] and 10.8 ± 0.9% in assay [5]. Half-maximal inhibition in assay [1] (IC50) required 0.1 µM.
Take `O=[N+]([O-])c1ccc2nc(Nc3ccc(F)cc3)c(Nc3ccc(F)cc3)nc2c1` [TD620, N^2,N^3-bis(4-fluorophenyl)-6-nitroquinoxaline-2,3-diamine]: the viability at 1 µM stood at 26.2 ± 0.6% in assay [1], 24.2 ± 1.4% in assay [2], 132 ± 5% in assay [4] and 48.7 ± 8.4% in assay [5]. The viability at 10 µM worked out at 21 ± 1.7% in assay [1], 12.6 ± 0.7% in assay [2], 17.9 ± 0.6% in assay [4] and 7.8 ± 0.4% in assay [5]. In addition, the midpoint of inhibition in assay [1], the IC50, lay at 0.3 µM.
On to `O=[N+]([O-])c1ccc2nc(Nc3ccc(Cl)c(F)c3)c(Nc3ccc(Cl)c(F)c3)nc2c1` [TD624, N^2,N^3-bis(4-chloro-3-fluorophenyl)-6-nitroquinoxaline-2,3-diamine], for which the viability at 1 µM in assay [1] is 90.8 ± 4.8%; in assay [2], 11.9 ± 1%; in assay [4] it was 15.7 ± 0.8%; in assay [5] it was 14.3 ± 3.6%.
On the same counts, the results for `C#Cc1cccc(Nc2nc3cc([N+](=O)[O-])ccc3nc2Nc2ccc(O)cc2C)c1` [TD625, 4-(2-(3-ethynylphenylamino)-7-nitroquinoxalin-3-ylamino)-3-methylphenol] are 224 ± 7%, 92.6 ± 7.4%, 115 ± 7.2% and 73.7 ± 3%.
Consider `COc1ccc(Nc2nc3ccc([N+](=O)[O-])cc3nc2Nc2ccc(C(F)(F)F)cc2)cc1` [TD626, N^3-(4-(trifluoromethyl)phenyl)-N^2-(4-methoxyphenyl)-6-nitroquinoxaline-2,3-diamine], for which the viability at 1 µM is 111 ± 1.3% in assay [1], 24.3 ± 3.6% in assay [2], 39 ± 2.2% in assay [4] and 40.4 ± 0.8% in assay [5].
As for `Cc1cc(Nc2nc3ccc([N+](=O)[O-])cc3nc2Nc2ccc(O)cc2)n[nH]1` [TD628, 4-(2-(5-methyl-1H-pyrazol-3-ylamino)-6-nitroquinoxalin-3-ylamino)phenol], the viability at 1 µM in assay [1] stood at 147 ± 4.5%; in assay [2], 140 ± 7.3%; in assay [4], 152 ± 1.7%.
For `NS(=O)(=O)c1ccc(Nc2nc3ccc([N+](=O)[O-])cc3nc2Nc2ccc(S(N)(=O)=O)cc2)cc1` [TD629, N^2,N^3-bis(4-phenylsulfonamide)-6-nitroquinoxaline-2,3-diamine], the viability at 1 µM in assay [1] was 132.8 ± 1%; in assay [2] it was 113 ± 3.6%; in assay [4], 140 ± 1.6%; in assay [5], 118 ± 1.2%.
On the same counts, the results for `COc1ccc(Nc2nc3ccc([N+](=O)[O-])cc3nc2Nc2ccc(F)cc2)cc1` [TD631, N^3-(4-fluorophenyl)-N^2-(4-methoxyphenyl)-6-nitroquinoxaline-2,3-diamine] are 42.5 ± 2.8%, 40.4 ± 1.9%, 35.8 ± 6.9% and 58.9 ± 3.1%.
